Measurements reported in patent US20260356851A1, “TRICYCLIC COMPOUNDS AND USES THEREOF” (HUTCHMED LIMITED, priority 2023, published 2026).
pIC50: −log10 of the molar value.

Assays:
Assay type in all cases: cell-based
[1] = molecular target: T1, pERK1/2 (Thr202/Tyr204), NCI-1H441 (KRAS G12V) (Homo sapiens, UniProt P01116, G12V); assay: Assay of intracellular pERK1/2 (Thr202/Tyr204) phosphorylation in NCI-H441 cells (KRAS G12V); details: pERK1/2, 2 days, read-out: NCI-H441 (KRAS G12V) IC50
T1 construct: pERK1/2 HTRF read-out
Procedure: (§1) Example 2: Assay of intracellular pERK1/2 (Thr202/Tyr204)phosphorylation
(§2) 1. Reagents and materials: • pERK1/2 (Thr202/Tyr2O4) HIRE kit, Cisbio, Cat #64ERKPEH; • OptiPlate™-384-well plate, PerkinElmer, Cat #6007299; • 96-well plate, Coming, Cat #353072; • Instrument: EnVision2104, PerkinElmer; • Cell lines: NCI-1H358 (KRAS G12C), ATCC, CRL-5807; PANC-1 (KRAS G121D), ATCC, CRL-1469; NCI-1H441 (KRAS G12V), ATCC, HTB-174.
(§3) 2. Preparation of Reaction Solutions
(§4) • A test compound was dissolved in DMSO, diluted to 200.0 μM and further diluted 3-fold to prepare a series of test compounds at concentrations of 66.7, 22.2, 7.4, 2.5, 0.82, 0.27, 0.09 μM etc. Then 10 μL of the compound at different dilution concentrations was added to 190 μL of a DMEM medium to prepare a 10× test compound; • 1× cell lysis buffer: 4× cell lysis stock solution (provided by the kit) was diluted 4-fold with deionized water, and then 10% 100× blocking stock solution (provided by the kit) was added thereto. • pERK1/2 detection solution (prepared just before use): the pERK1/2 d2 antibody (provided by the kit) and pERK1/2 Cryptate antibody (provided by the kit) were diluted with the detection solution (provided by the kit) at a ratio of 1:1:38.
(§5) • Cells were inoculated into a 96-well plate (100 μL/well) at a density of 10000-12000/well. No cell was inoculated into a negative control well, and only the cell medium was added at 100 μL/well. The plate was placed in a cell incubator at 5% CO2 and 37° C. overnight. • 10 μL of the 10× test compound was added to the 100 μL cell culture 96-well plate; both the positive control well (that is, the control hole without chemical compound treatment) and the negative control well were charged with 10 μL of a 5% DMSO culture solution; and the plate was cultured in a cell incubator at 5% CO2 and 37° C. for 2 days. • The medium in the 96-well plate was removed; 50 μL of the 1× cell lysis buffer was added to each of the wells; the plate was placed in a microplate shaker; and lysis under shaking was carried out at 900 rpm at room temperature for 1 hour. • 16 μL of the lysis buffer in the 96-well plate was taken and transferred to a 384-well plate, followed by centrifugation at 1000 rpm for 30 s; then 4 μL of pERK1/2 detection solution was added to each well, followed by centrifugation at 1000 rpm for 30 s; and the 384-well plate was sealed with a sealing membrane and incubated at 25° C. on a low-speed shaker at 100 rpm in the dark for 2 hours. • The fluorescence value (RFU) of each well was detected on EnVision2104, with an emission wavelength 1 being 665 nm and an emission wavelength 2 being 615 nm.
(§6) Fluorescence ratio=fluorescence value665 nm/fluorescence value615 nm
(§7) Inhibition rate (%)=100−((fluorescence ratio of compound well−fluorescence ratio of negative control well)/(fluorescence ratio of positive control well−fluorescence ratio of negative control well))×100
(§8) wherein: • the fluorescence ratio of compound well refers to the fluorescence ratio of the well containing the test compounds; • the fluorescence ratio of negative control well refers to the fluorescence ratio of the cell-free control well; • the fluorescence ratio of positive control well refers to the fluorescence ratio of the cell well treated with 0.5% DMSO.
(§9) IC50 value: obtained by calculation using XL-Fit 5.0 software.

[2] = molecular target: T2, pERK1/2 (Thr202/Tyr204), NCI-1H358 (KRAS G12C) (Homo sapiens, UniProt P01116, G12C); assay: Assay of intracellular pERK1/2 (Thr202/Tyr204) phosphorylation in NCI-H358 cells (KRAS G12C); details: pERK1/2, 2 days, read-out: NCI-H358 (KRAS G12C) IC50
T2 construct: pERK1/2 HTRF read-out
Procedure: as §1, §2, §3, §4, §5, §6, §7, §8, §9

[3] = molecular target: T3, pERK1/2 (Thr202/Tyr204), PANC-1 (KRAS G121D) (Homo sapiens, UniProt P01116, G12D); assay: Assay of intracellular pERK1/2 (Thr202/Tyr204) phosphorylation in PANC-1 cells (KRAS G12D); details: pERK1/2, 2 days, read-out: PANC-1 (KRAS G12D) IC50
T3 construct: pERK1/2 HTRF read-out
Procedure: as §1, §2, §3, §4, §5, §6, §7, §8, §9

T1 sequence (P01116 1-188 isoform P01116-2 G12V): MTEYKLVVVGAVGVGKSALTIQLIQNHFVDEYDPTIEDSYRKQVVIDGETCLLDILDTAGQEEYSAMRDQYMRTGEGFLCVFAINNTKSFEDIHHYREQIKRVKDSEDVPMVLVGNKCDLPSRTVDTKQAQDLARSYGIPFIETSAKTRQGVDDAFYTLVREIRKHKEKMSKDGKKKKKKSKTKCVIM
T3 sequence (P01116 1-188 isoform P01116-2 G12D): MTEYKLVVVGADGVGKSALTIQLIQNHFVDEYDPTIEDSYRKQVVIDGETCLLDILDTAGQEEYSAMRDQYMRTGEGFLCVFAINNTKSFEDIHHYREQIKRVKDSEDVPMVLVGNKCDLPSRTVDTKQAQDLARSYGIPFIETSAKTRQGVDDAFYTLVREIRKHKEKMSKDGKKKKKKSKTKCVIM
T2 sequence (P01116 1-188 isoform P01116-2 G12C): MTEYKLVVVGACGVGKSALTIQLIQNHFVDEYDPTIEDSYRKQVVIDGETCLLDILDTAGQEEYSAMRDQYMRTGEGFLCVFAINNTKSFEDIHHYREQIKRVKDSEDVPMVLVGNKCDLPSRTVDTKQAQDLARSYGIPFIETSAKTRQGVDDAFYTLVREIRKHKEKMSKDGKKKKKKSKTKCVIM

Row | Compound | pIC50 [1] | pIC50 [2] | pIC50 [3]
1 | CC(c1cccnc1N)N1CCOc2nc(-c3cc(N)ccc3C(F)(F)F)c(F)c3nc(OC[C@@]45CCCN4C[C@H](F)C5)nc1c23 (single isomer, unassigned) [Compound 54, 3-((R or S)-1-(5-(5-amino-2-(trifluoromethyl)phenyl)-4-fluoro-2-(((2R,7aS)-2-fluorotetrahydro-1H-pyrrolizin-7a(5H)-yl)methoxy)-8,9-dihydro-10H-7-oxa-1,3,6,10-tetraazacyclohepta[de]naphthalen-10-yl)ethyl)pyridin-2-amine] | 8.70 | 9.15 | 7.68
2 | CC(c1cccnc1N)N1CCOc2nc(-c3cc(O)cc(Cl)c3C3CC3)c(F)c3nc(OC[C@@H]4CC(F)(F)CN4C)nc1c23 (single isomer, unassigned) [Compound 55, 3-(10-((R or S)-1-(2-aminopyridin-3-yl)ethyl)-2-(((S)-4,4-difluoro-1-methylpyrrolidin-2-yl)methoxy)-4-fluoro-9,10-dihydro-8H-7-oxa-1,3,6,10-tetraazacyclohepta[de]naphthalen-5-yl)-5-chloro-4-cyclopropylphenol] | 6.29 | 6.49 | < 6.00
3 | CC(c1cccnc1N)N1CCOc2nc(-c3cc(O)cc(Cl)c3C3CC3)c(F)c3nc(OC[C@@H]4CC(F)(F)CN4C)nc1c23 (single isomer, unassigned) [Compound 56, 3-(10-((R or S)-1-(2-aminopyridin-3-yl)ethyl)-2-(((S)-4,4-difluoro-1-methylpyrrolidin-2-yl)methoxy)-4-fluoro-9,10-dihydro-8H-7-oxa-1,3,6,10-tetraazacyclohepta[de]naphthalen-5-yl)-5-chloro-4-cyclopropylphenol] | 8.30 | 8.52 | 6.87
4 | CC(c1cccnc1N)N1CCOc2nc(-c3cc(O)cc(Cl)c3C(F)(F)F)c(F)c3nc(OC[C@@]45CCCN4C[C@H](F)C5)nc1c23 (single isomer, unassigned) [Compound 57, 3-(10-((R or S)-1-(2-aminopyridin-3-yl)ethyl)-4-fluoro-2-(((2R,7aS)-2-fluorotetrahydro-1H-pyrrolizin-7a(5H)-yl)methoxy)-9,10-dihydro-8H-7-oxa-1,3,6,10-tetraazacyclohepta[de]naphthalen-5-yl)-5-chloro-4-(trifluoromethyl)phenol] | 7.49 | 7.82 | 6.13
5 | CC(c1cccnc1N)N1CCOc2nc(-c3cc(O)cc(Cl)c3C(F)(F)F)c(F)c3nc(OC[C@@]45CCCN4C[C@H](F)C5)nc1c23 (single isomer, unassigned) [Compound 58, 3-(10-((R or S)-1-(2-aminopyridin-3-yl)ethyl)-4-fluoro-2-(((2R,7aS)-2-fluorotetrahydro-1H-pyrrolizin-7a(5H)-yl)methoxy)-9,10-dihydro-8H-7-oxa-1,3,6,10-tetraazacyclohepta[de]naphthalen-5-yl)-5-chloro-4-(trifluoromethyl)phenol] | 8.30 | 8.52 | 6.83
6 | Cc1cc(N)cc(-c2nc3c4c(nc(OC[C@@]56CCCN5C[C@H](F)C6)nc4c2F)N(C(C)c2cccnc2N)CCO3)c1C(F)(F)F (single isomer, unassigned) [Compound 61, 3-((R or S)-1-(5-(5-amino-3-methyl-2-(trifluoromethyl)phenyl)-4-fluoro-2-(((2R,7aS)-2-fluorotetrahydro-1H-pyrrolizin-7a(5H)-yl)methoxy)-8,9-dihydro-10H-7-oxa-1,3,6,10-tetraazacyclohepta[de]naphthalen-10-yl)ethyl)pyridin-2-amine] | 9.70 | 9.70 | 9.22
7 | Cc1cc(N)cc(-c2nc3c4c(nc(OC[C@@]56CCCN5C[C@H](F)C6)nc4c2F)N(C(C)c2cccnc2N)CCO3)c1C(F)(F)F (single isomer, unassigned) [Compound 62, 3-((R or S)-1-(5-(5-amino-3-methyl-2-(trifluoromethyl)phenyl)-4-fluoro-2-(((2R,7aS)-2-fluorotetrahydro-1H-pyrrolizin-7a(5H)-yl)methoxy)-8,9-dihydro-10H-7-oxa-1,3,6,10-tetraazacyclohepta[de]naphthalen-10-yl)ethyl)pyridin-2-amine] | 8.05 | 8.10 | 7.26
8 | CC(c1cccnc1N)N1CCOc2nc(-c3cc(N)cc(Cl)c3C(F)(F)F)c(F)c3nc(OC[C@@]45CCCN4C[C@H](F)C5)nc1c23 (single isomer, unassigned) [Compound 71, 3-((R or S)-1-(5-(5-amino-3-chloro-2-(trifluoromethyl)phenyl)-4-fluoro-2-(((2R,7aS)-2-fluorotetrahydro-1H-pyrrolizin-7a(5H)-yl)methoxy)-8,9-dihydro-10H-7-oxa-1,3,6,10-tetraazacyclohepta[de]naphthalen-10-yl)ethyl)pyridin-2-amine] | 9.40 | 10.00 | 9.22
9 | CC(c1cccnc1N)N1CCOc2nc(-c3cc(N)cc(Cl)c3C(F)(F)F)c(F)c3nc(OC[C@@]45CCCN4C[C@H](F)C5)nc1c23 (single isomer, unassigned) [Compound 72, 3-((R or S)-1-(5-(5-amino-3-chloro-2-(trifluoromethyl)phenyl)-4-fluoro-2-(((2R,7aS)-2-fluorotetrahydro-1H-pyrrolizin-7a(5H)-yl)methoxy)-8,9-dihydro-10H-7-oxa-1,3,6,10-tetraazacyclohepta[de]naphthalen-10-yl)ethyl)pyridin-2-amine] | 7.89 | 7.96 | 7.42
10 | CC(c1cccnc1N)N1CCOc2nc(-c3cc(N)cc(Cl)c3C3CC3)c(F)c3nc(OC[C@@]45CCCN4C[C@H](F)C5)nc1c23 (single isomer, unassigned) [Compound 74, 3-((R or S)-1-(5-(5-amino-3-chloro-2-cyclopropylphenyl)-4-fluoro-2-(((2R,7aS)-2-fluorotetrahydro-1H-pyrrolizin-7a(5H)-yl)methoxy)-8,9-dihydro-10H-7-oxa-1,3,6,10-tetraazacyclohepta[de]naphthalen-10-yl)ethyl)pyridin-2-amine] | 9.40 | 9.70 | 8.40
11 | CC(c1cccnc1N)N1CCOc2nc(-c3cc(N)cc(Cl)c3C3CC3)c(F)c3nc(OC[C@@]45CCCN4C[C@H](F)C5)nc1c23 (single isomer, unassigned) [Compound 75, 3-((R or S)-1-(5-(5-amino-3-chloro-2-cyclopropylphenyl)-4-fluoro-2-(((2R,7aS)-2-fluorotetrahydro-1H-pyrrolizin-7a(5H)-yl)methoxy)-8,9-dihydro-10H-7-oxa-1,3,6,10-tetraazacyclohepta[de]naphthalen-10-yl)ethyl)pyridin-2-amine] | 7.96 | 8.30 | 7.40
12 | Cc1cc(N)cc(-c2nc3c4c(nc(OC[C@@H]5CCCN5C)nc4c2F)N(C(C)c2cccnc2N)CCO3)c1C(F)(F)F (single isomer, unassigned) [Compound 76, 3-((R or S)-1-(5-(5-amino-3-methyl-2-(trifluoromethyl)phenyl)-4-fluoro-2-(((S)-1-methylpyrrolidin-2-yl)methoxy)-8,9-dihydro-10H-7-oxa-1,3,6,10-tetraazacyclohepta[de]naphthalen-10-yl)ethyl)pyridin-2-amine] | 9.15 | 9.30 | 7.74
